In patent EP4562003B1, “NOVEL 7-SUBSTITUTED INDOLE SULFONAMIDE DERIVATIVES” (F. Hoffmann-La Roche AG, priority 2022, dated 2024) one finds IC50 data, which are given here for 27 molecules.

Chain of human GPR17 short isoform (Q13304 29-367): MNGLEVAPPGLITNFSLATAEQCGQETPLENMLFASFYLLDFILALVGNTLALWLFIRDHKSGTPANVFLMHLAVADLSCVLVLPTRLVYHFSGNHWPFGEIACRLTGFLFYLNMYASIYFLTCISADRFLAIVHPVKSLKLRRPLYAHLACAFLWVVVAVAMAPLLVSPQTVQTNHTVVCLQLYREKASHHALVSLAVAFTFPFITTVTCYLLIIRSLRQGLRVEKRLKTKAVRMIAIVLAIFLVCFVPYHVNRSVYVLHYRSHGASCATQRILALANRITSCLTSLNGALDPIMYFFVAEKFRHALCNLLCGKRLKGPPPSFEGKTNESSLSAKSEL

The experiment deals with human GPR17 short isoform (Homo sapiens, UniProt Q13304). Nature of the experiment: GPR17 cAMP assay (TR-FRET cAMP quantification, antagonist mode). The following applies: CHO-K1 cells stably expressing human GPR17 short isoform; EC80 of agonist MDL29,951; forskolin 15µM; IBMX 0.5mM; 30 minutes at room temperature; read-out: hGPR17 cAMP IC50. The class given is cell-based. On the procedure:
GPR17 cAMP Assay Protocol:
CHO-K1 cells stably expressing vector containing untagged human GPR17 short isoform (Roche) were cultured at 37°C / 5% CO2 in DMEM (Dulbecco's Modified Eagle Medium):F-12 (1:1) supplemented with 10% foetal bovine serum and 400 µg/ml Geneticin.
Changes in intracellular cyclic adenosine monophosphate (cAMP) levels were quantified using the Nano-TRF Detection Assay kit (Roche Diagnostics, Cat. No. 05214386001). This assay allows for direct cAMP quantification in a homogeneous solution. cAMP is detected based on time-resolved fluorescence energy transfer (TR-FRET) and competitive binding of ruthenylated cAMP and endogenous cAMP to an anti-cAMP monoclonal antibody labeled with AlexaFluor-700. The Ruthenium complex serves as the FRET donor and transfers energy to AlexaFluor-700. The FRET signal is inversely proportional to the cAMP concentration.
CHO-GPR17S cells were detached with Accutase and resuspended in assay buffer consisting of Hank's Balanced Salt Solution (HBSS), 10mM HEPES (4-(2-hydroxyethyl) piperazine-1-ethanesulfonic acid solution) and 0.1% bovine serum albumin (pH 7.4). The cells were seeded in black 384-well plates (Corning) at a density of 10'000 cells / 20µl assay buffer until the addition of compounds.
Test antagonist compounds were serially diluted in dimethyl sulfoxide (DMSO) and spotted in 384-well plates. The compounds were then diluted in HBSS buffer supplemented with an EC80 concentration of MDL29,951 (3-(2-Carboxy-4,6-dichloroindol-3-yl)propionic acid) (GPR17 agonist) plus 3-Isobutyl-1-methylxanthine (IBMX) (0.5mM final concentration) and added to the cells at room temperature. Forskolin (15µM final concentration) was added 5 minutes after the test compounds and the cells were incubated at room temperature for 30 minutes. The assay was stopped by adding cAMP detection mix (containing detergents for cell lysis) for 90 minutes at room temperature.
Cellular cAMP was measured using a Paradigm reader (Molecular Devices). The raw data was used to calculate the FRET signal based on the assay's P-factor as per cAMP kit instructions. The data was normalized to the maximal activity of a reference antagonist and dose response curves were fitted to the percent activity of the test compounds using a sigmoidal dose response model (Genedata Screener).
Results in the hGPR17 cAMP assay are provided for compounds of formula I in Table 1 Table 1: […]
A word on the IC50: it is the concentration that gives 50% inhibition. With `COc1nc(NS(=O)(=O)c2c[nH]c3c(-c4ncn(C)c4C)c(Cl)ccc23)nc(OC)c1OCC(F)F` [Example 46, 6-chloro-N-[5-(2,2-difluoroethoxy)-4,6-dimethoxy-pyrimidin-2-yl]-7-(1,5-dimethylimidazol-4-yl)-1H-indole-3-sulfonamide], the IC50 came to 34 nM.

Regarding `COc1nc(NS(=O)(=O)c2c[nH]c3c(-c4ncccn4)c(C)ccc23)nc(OC)c1OC(F)F` [Example 55, N-[5-(difluoromethoxy)-4,6-dimethoxy-pyrimidin-2-yl]-6-methyl-7-(2-pyrimidyl)-1H-indole-3-sulfonamide], the IC50 is 157 nM.

Regarding `COc1nc(NS(=O)(=O)c2c[nH]c3c(-c4cscn4)c(Cl)ccc23)nc(OC)c1OCC(F)F` [Example 115, 6-chloro-N-[5-(2,2-difluoroethoxy)-4,6-dimethoxy-pyrimidin-2-yl]-7-thiazol-4-yl-1H-indole-3-sulfonamide], the IC50 is 40 nM.

Regarding `COc1nc(NS(=O)(=O)c2c[nH]c3c(-c4nccnc4Cl)c(Cl)ccc23)nc(OC)c1OC(F)F` [Example 64, 6-chloro-7-(3-chloropyrazin-2-yl)-N-[5-(difluoromethoxy)-4,6-dimethoxy-pyrimidin-2-yl]-1H-indole-3-sulfonamide], the IC50 stood at 35 nM.

In the case of `COc1nc(NS(=O)(=O)c2c[nH]c3c(-c4ncccn4)c(Cl)ccc23)nc(OC)c1CCC#N` [Example 79, 6-chloro-N-[5-(2-cyanoethyl)-4,6-dimethoxy-pyrimidin-2-yl]-7-(2-pyrimidyl)-1H-indole-3-sulfonamide], the IC50 was determined as 59 nM.

In the case of `COc1nc(NS(=O)(=O)c2c[nH]c3c(-c4cc(C)ncn4)c(Cl)ccc23)nc(OC)c1OCC(F)F` [Example 96, 6-chloro-N-[5-(2,2-difluoroethoxy)-4,6-dimethoxy-pyrimidin-2-yl]-7-(6-methylpyrimidin-4-yl)-1H-indole-3-sulfonamide], the IC50 was determined as 32 nM.

As to `COc1nc(NS(=O)(=O)c2c[nH]c3c(-c4ncccn4)c(Cl)ccc23)nc(OC)c1OCC(F)F` [Example 1, 6-chloro-N-[5-(2,2-difluoroethoxy)-4,6-dimethoxy-pyrimidin-2-yl]-7-(2-pyrimidyl)-1H-indole-3-sulfonamide], the IC50 amounted to 48 nM.

Regarding `COc1nc(NS(=O)(=O)c2c[nH]c3c(-c4ncccc4C)c(Cl)ccc23)nc(OC)c1OC(F)F` [Example 103, 6-chloro-N-[5-(difluoromethoxy)-4,6-dimethoxy-pyrimidin-2-yl]-7-(3-methyl-2-pyridyl)-1H-indole-3-sulfonamide], the IC50 was determined as 54 nM.

As to `COc1nc(NS(=O)(=O)c2c[nH]c3c(-c4cccnn4)cccc23)nc(OC)c1CC(F)F` [Example 11, N-[5-(2,2-difluoroethyl)-4,6-dimethoxy-pyrimidin-2-yl]-7-pyridazin-3-yl-1H-indole-3-sulfonamide], the IC50 was found to be 50 nM.

For `COc1nc(NS(=O)(=O)c2c[nH]c3c(-c4ccncn4)c(Cl)ccc23)nc(OC)c1OCC(F)F` [Example 77, 6-chloro-N-[5-(2,2-difluoroethoxy)-4,6-dimethoxy-pyrimidin-2-yl]-7-(4-pyrimidyl)-1H-indole-3-sulfonamide], the IC50 is 24 nM.

On to `COc1nc(NS(=O)(=O)c2c[nH]c3c(-c4cncc(C)n4)c(Cl)ccc23)nc(OC)c1CC(F)F` [Example 86, 6-chloro-N-[5-(2,2-difluoroethyl)-4,6-dimethoxy-pyrimidin-2-yl]-7-(6-methylpyrazin-2-yl)-1H-indole-3-sulfonamide], for which the IC50 was found to be 29 nM.

`COc1nc(NS(=O)(=O)c2c[nH]c3c(-c4nccn4C)c(Cl)ccc23)nc(OC)c1OCC(F)F` [Example 8, 6-chloro-N-[5-(2,2-difluoroethoxy)-4,6-dimethoxy-pyrimidin-2-yl]-7-(1-methylimidazol-2-yl)-1H-indole-3-sulfonamide]: the IC50 was found to be 39 nM.

As to `COc1nc(NS(=O)(=O)c2c[nH]c3c(-c4ncccn4)c(C(F)F)ccc23)nc(OC)c1OCCF` [Example 44, 6-(difluoromethyl)-N-[5-(2-fluoroethoxy)-4,6-dimethoxy-pyrimidin-2-yl]-7-(2-pyrimidyl)-1H-indole-3-sulfonamide], the IC50 worked out at 182 nM.

For the molecule `COc1nc(NS(=O)(=O)c2c[nH]c3c(-c4ncc(F)cn4)c(Cl)ccc23)nc(OC)c1OCC(F)F` [Example 105, 6-chloro-N-[5-(2,2-difluoroethoxy)-4,6-dimethoxy-pyrimidin-2-yl]-7-(5-fluoropyrimidin-2-yl)-1H-indole-3-sulfonamide], the IC50 came to 221 nM.

As to `COc1nc(NS(=O)(=O)c2c[nH]c3c(-c4nccn4C)cccc23)nc(OC)c1OCC(F)F` [Example 7, N-[5-(2,2-difluoroethoxy)-4,6-dimethoxy-pyrimidin-2-yl]-7-(1-methylimidazol-2-yl)-1H-indole-3-sulfonamide], the IC50 worked out at 34 nM.

Regarding `COc1nc(NS(=O)(=O)c2c[nH]c3c(-c4cnn(C)c4)c(Cl)ccc23)nc(OC)c1OC(F)F` [Example 113, 6-chloro-N-[5-(difluoromethoxy)-4,6-dimethoxy-pyrimidin-2-yl]-7-(1-methylpyrazol-4-yl)-1H-indole-3-sulfonamide], the IC50 came out at 82 nM.

For `COc1nc(NS(=O)(=O)c2c[nH]c3c(-c4cnco4)c(Cl)ccc23)nc(OC)c1OCC(F)F` [Example 116, 6-chloro-N-[5-(2,2-difluoroethoxy)-4,6-dimethoxy-pyrimidin-2-yl]-7-oxazol-5-yl-1H-indole-3-sulfonamide], the IC50 stood at 59 nM.

As to `COc1nc(NS(=O)(=O)c2c[nH]c3c(-c4ncccn4)cccc23)nc(OC)c1OCC(F)F` [Example 72, N-[5-(2,2-difluoroethoxy)-4,6-dimethoxy-pyrimidin-2-yl]-7-(2-pyrimidyl)-1H-indole-3-sulfonamide], the concentration for half-maximal inhibition (IC50) amounted to 1420 nM.

With `COc1nc(NS(=O)(=O)c2c[nH]c3c(-c4nnco4)c(Cl)ccc23)nc(OC)c1OCC(F)F` [Example 110, 6-chloro-N-[5-(2,2-difluoroethoxy)-4,6-dimethoxy-pyrimidin-2-yl]-7-(1,3,4-oxadiazol-2-yl)-1H-indole-3-sulfonamide], the IC50 amounted to 46 nM.

For the molecule `COc1nc(NS(=O)(=O)c2c[nH]c3c(-c4ncccn4)c(C)ccc23)nc(OC)c1OCC(F)F` [Example 48, N-[5-(2,2-difluoroethoxy)-4,6-dimethoxy-pyrimidin-2-yl]-6-methyl-7-(2-pyrimidyl)-1H-indole-3-sulfonamide], the IC50 was 86 nM.

As for `COc1nc(NS(=O)(=O)c2c[nH]c3c(-c4ccccn4)c(Cl)ccc23)nc(OC)c1OCC(F)F` [Example 19, 6-chloro-N-[5-(2,2-difluoroethoxy)-4,6-dimethoxy-pyrimidin-2-yl]-7-(2-pyridyl)-1H-indole-3-sulfonamide], the IC50 came to 18 nM.

Consider `COc1nc(NS(=O)(=O)c2c[nH]c3c(-c4ncccn4)c(Cl)ccc23)ncc1OCCF` [Example 80, 6-chloro-N-[5-(2-fluoroethoxy)-4-methoxy-pyrimidin-2-yl]-7-(2-pyrimidyl)-1H-indole-3-sulfonamide], for which the IC50 came to 260 nM.

In the case of `COc1nc(NS(=O)(=O)c2c[nH]c3c(-c4cnccn4)c(Br)ccc23)nc(OC)c1OCC(F)F` [Example 41, 6-bromo-N-[5-(2,2-difluoroethoxy)-4,6-dimethoxy-pyrimidin-2-yl]-7-pyrazin-2-yl-1H-indole-3-sulfonamide], the 50% inhibitory concentration (IC50) is 15 nM.

For the molecule `COc1nc(NS(=O)(=O)c2c[nH]c3c(-c4ncccn4)c(Cl)c(F)cc23)nc(OC)c1OCC(F)F` [Example 60, 6-chloro-N-[5-(2,2-difluoroethoxy)-4,6-dimethoxy-pyrimidin-2-yl]-5-fluoro-7-(2-pyrimidyl)-1H-indole-3-sulfonamide], the IC50 was found to be 121 nM.

On to `COc1nc(NS(=O)(=O)c2c[nH]c3c(-c4cccnn4)c(Cl)ccc23)nc(OC)c1OCC(F)F` [Example 4, 6-chloro-N-[5-(2,2-difluoroethoxy)-4,6-dimethoxy-pyrimidin-2-yl]-7-pyridazin-3-yl-1H-indole-3-sulfonamide], for which the IC50 came out at 44 nM.

Regarding `COc1nc(NS(=O)(=O)c2c[nH]c3c(-c4cnc(Cl)cn4)c(Cl)ccc23)nc(OC)c1OCC(F)F` [Example 90, 6-chloro-7-(5-chloropyrazin-2-yl)-N-[5-(2,2-difluoroethoxy)-4,6-dimethoxy-pyrimidin-2-yl]-1H-indole-3-sulfonamide], the IC50 was 261 nM.

Take `COc1nc(NS(=O)(=O)c2c[nH]c3c(-c4cnn(C)n4)c(Cl)ccc23)nc(OC)c1OCCF` [Example 109, 6-chloro-N-[5-(2-fluoroethoxy)-4,6-dimethoxy-pyrimidin-2-yl]-7-(2-methyltriazol-4-yl)-1H-indole-3-sulfonamide]: the IC50 was found to be 36 nM.
